Structures can show the parent of a compound that is named as a salt.
Molecular target: human active recombinant p38α-6His tagged (Homo sapiens, UniProt Q16539)
Assay: P38 Alpha Enzyme Assay (AlphaScreen, biotinylated-ATF2 substrate);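 further: 0.5 nM final p38α, reaction started with ATP and run 45 min at 37 °C, phospho-ATF2 read by antibody-based AlphaScreen, background wells quenched with EDTA before ATP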
Assay type: biochemical
Settings: p38 alpha enzyme inhibition; means of replicate determinations; 4 h pre-incubation at 37° C.; SD of assay 0.2-0.3 log units

human active recombinant p38α-6His tagged, sequence (Q16539 whole entry): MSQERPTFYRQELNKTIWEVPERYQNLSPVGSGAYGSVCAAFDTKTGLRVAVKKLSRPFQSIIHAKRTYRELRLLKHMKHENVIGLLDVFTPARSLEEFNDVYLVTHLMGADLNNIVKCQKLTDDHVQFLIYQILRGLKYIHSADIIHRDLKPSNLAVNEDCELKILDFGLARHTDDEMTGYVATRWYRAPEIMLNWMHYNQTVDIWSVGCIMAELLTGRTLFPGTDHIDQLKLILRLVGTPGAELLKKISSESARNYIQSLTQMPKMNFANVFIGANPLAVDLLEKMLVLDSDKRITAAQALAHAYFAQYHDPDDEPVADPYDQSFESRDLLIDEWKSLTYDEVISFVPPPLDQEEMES

Compound | pIC50
Cc1ccc(C(=O)NC2CC2)cc1-n1ccnc(NC(C)(C)c2ccccc2OCCCCNCC(F)(F)F)c1=O [Example 205, N-Cyclopropyl-4-methyl-3-[3-[[1-methyl-1-[2-[4-[(2,2,2-trifluoroethyl)amino]butoxy]phenyl]ethyl]amino]-2-oxo-1(2H)-pyrazinyl]-benzamide] | 9
Cc1ccc(C(=O)NC2CC2)cc1-n1ccnc(NC2(c3ccccc3OCCNC3CCC3)CC2)c1=O [Example 248, 3-[3-[[1-[2-[2-(cyclobutylamino)ethoxy]phenyl]cyclopropyl]amino]-2-oxo-1(2H)-pyrazinyl]-N-Cyclopropyl-4-methyl-benzamide] | 10
Cc1ccc(C(=O)NC2CC2)cc1-n1ccnc(NC[C@H](O)c2ccccc2)c1=O [Example 55, N-Cyclopropyl-3-[3-[[(2R)-2-hydroxy-2-phenylethyl]amino]-2-oxo-1(2H)-pyrazinyl]-4-methyl-benzamide] | 6.5
CONC(=O)c1ccc(C)c(-n2ccnc(N[C@@H](c3cccc4ccccc34)[C@@H](C)CN3CCCC3)c2=O)c1 [Example 158, N-Methoxy-4-methyl-3-[3-[[(1R,2S)-2-methyl-1-(1-naphthalenyl)-3-(1-pyrrolidinyl)propyl]amino]-2-oxo-1(2H)-pyrazinyl]-benzamide] | 9
Cc1ccc(C(=O)NC2CC2)cc1-n1ccnc(N[C@@H](c2ccccc2)[C@@H](C)CNCC(C)C)c1=O [Example 182, N-Cyclopropyl-4-methyl-3-[3-[[(1R,2S)-2-methyl-3-[(2-methylpropyl)amino]-1-phenylpropyl]amino]-2-oxo-1(2H)-pyrazinyl]-benzamide] | 9
Cc1ccc(C(=O)NC2CC2)cc1-n1ccnc(NC(C)(C)Cc2ccccc2)c1=O [Example 65, N-Cyclopropyl-3-[3-[(1,1-dimethyl-2-phenylethyl)amino]-2-oxo-1(2H)-pyrazinyl]-4-methyl-benzamide] | 7
Cc1ccc(C(=O)NC2CC2)cc1-n1cc(Cl)nc(NCCc2ccccc2)c1=O [Example 110, 3-[5-Chloro-2-oxo-3-[(2-phenylethyl)amino]-1(2H)-pyrazinyl]-N-cyclopropyl-4-methyl-benzamide] | 6.7

Now from value to molecule:

pIC50 | Compound
6.8 | CNCCOc1ccccc1C(C)(C)Nc1nccn(-c2cc(C(=O)NCCO)ccc2C)c1=O [Example 228, N-(2-Hydroxyethyl)-4-methyl-3-[3-[[1-methyl-1-[2-[2-(methylamino)ethoxy]phenyl]ethyl]amino]-2-oxo-1(2H)-pyrazinyl]-benzamide]
6.1 | Cc1ccc(C(=O)NC2CC2)cc1-n1ccnc(NCCCN(C)C)c1=O [Example 3, N-Cyclopropyl-3-[3-[[3-(dimethylamino)propyl]amino]-2-oxo-1(2H)-pyrazinyl]-4-methyl-benzamide]
9.7 | C[C@@H](O)CNCCOc1ccccc1C(C)(C)Nc1nccn(-c2cc(C(=O)NC3CC3)ccc2Cl)c1=O [Example 332, 4-Chloro-N-cyclopropyl-3-[3-({1-[2-(2-{[(2R)-2-hydroxypropyl]amino}ethoxy)phenyl]-1-methylethyl}amino)-2-oxopyrazin-1(2H)-yl]benzamide]
6.1 | Cc1ccc(C(=O)NC2CC2)cc1-n1ccnc(N[C@H](c2ccccc2)C2CCNCC2)c1=O [Example 103, N-Cyclopropyl-4-methyl-3-[2-oxo-3-[[(S)-phenyl-4-piperidinylmethyl]amino]-1(2H)-pyrazinyl]-benzamide trifluoroacetate]
8.1 | Cc1ccc(C(=O)NC2CC2)cc1-n1ccnc(N[C@@H](c2cccc3ccccc23)[C@@H](C)CO)c1=O [Example 137, N-Cyclopropyl-3-[3-[[(1R,2R)-3-hydroxy-2-methyl-1-(1-naphthalenyl)propyl]amino]-2-oxo-1(2H)-pyrazinyl]-4-methyl-benzamide]

From patent US20120214822A1 (ASTRAZENECA AB, priority 2007, published 2012)
